Reference: PMC6912803, “Sideritis Perfoliata (Subsp. Perfoliata) Nutritive Value and Its Potential Medicinal Properties” (Antioxidants, 2019)

What was measured:
[1] = system: T1, mushroom tyrosinase; assay: L-tyrosine oxidation, absorbance at […] nm over […] min; format: biochemical; parameters: reference not given here; conditions: 2 mM L-tyrosine stock (110 µL added), potassium phosphate pH 6.5, room temperature, 5 min preincubation
T1 construct: gene PPO3; native commercial mushroom tyrosinase (Sigma-Aldrich), isoenzyme mixture

[2] = target: T2, Porcine pancreatic elastase (PPE) (Sus scrofa, UniProt P00772); assay: N-succinyl-(Ala)3-p-nitroanilide hydrolysis, absorbance at […] nm; format: biochemical; conditions: read-out: Positive Control MIC/IC50 ± SD (μg/mL) (converted)
T2 construct: gene CELA1; mature active protease
T2 sequence (P00772 27-266): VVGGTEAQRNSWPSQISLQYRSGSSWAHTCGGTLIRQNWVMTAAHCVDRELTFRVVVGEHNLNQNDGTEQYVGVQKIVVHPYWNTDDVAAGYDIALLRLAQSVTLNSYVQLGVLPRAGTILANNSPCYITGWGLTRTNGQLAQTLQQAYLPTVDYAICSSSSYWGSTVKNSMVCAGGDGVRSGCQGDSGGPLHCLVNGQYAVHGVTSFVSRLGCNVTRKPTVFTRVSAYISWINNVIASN

SMILES | Positive Control MIC/IC50 ± SD [1] [µg/mL] | IC50 [2] [µM]
O=c1cc(CO)occ1O [kojic acid] | 2.84 ± 0.23 | –
C[C@H]1[C@H](C)CC[C@]2(C(=O)O)CC[C@]3(C)C(=CC[C@@H]4[C@@]5(C)CC[C@H](O)C(C)(C)[C@@H]5CC[C@]43C)[C@H]12 [ursolic acid] | – | 40.4
